According to patent US9980943B2, “Methods of treating muscular dystrophy” (BOARD OF REGENTS OF THE NEVADA SYSTEM OF HIGHER EDUCATION, …, priority 2013, dated 2018):

Columns and labels:
Format in all cases: cell-based, mouse
[1] = system: β-galactosidase in CMV-LacZ C2C12 myotubes; assay: CMV-LacZ secondary screen in C2C12 myotubes (β-Gal stabilizing assay); conditions: for CMV-LACZ in Myotubes, signal relative to DMSO: C2C12 CMV-LacZ myotubes, fold relative to DMSO; for CMV-LACZ in Myotubes, value relative to DMSO: SU9516 analogs, C2C12 CMV-LacZ, N=2
Summary of the method: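 A secondary screen identifies compounds that stabilize β-gal independently of the native promoter, using CMV-LacZ C2C12 cells. Curves span 0.5–40 μM at six levels, in duplicate.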

[2] = system: α7 integrin (LacZ reporter in α7βgal+/− myoblasts); assay: Myoblast α7+/LacZ integrin FDG assay (Burkin assay in myoblasts, 96-well); conditions: 96-well; for Burkin Assay in Myoblasts, signal relative to DMSO: α7+/LacZ myoblasts; for Burkin Assay in Myoblasts, value relative to DMSO: SU9516 analogs, N=3-6
[3] = system: β-galactosidase in CMV-LacZ C2C12 myoblasts; assay: CMV-LacZ secondary screen in C2C12 myoblasts (β-Gal stabilizing assay); conditions: for CMV-LACZ in Myoblasts (β-galactosidase activity relative to DMSO): CMV-LacZ C2C12 myoblasts; for CMV-LACZ in Myoblasts, value relative to DMSO: SU9516 analogs, C2C12 CMV-LacZ, N=2
Summary of the method: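 β-gal stabilization was measured in C2C12 myoblasts or myotubes stably transfected with a CMV-driven LacZ construct, using the FDG β-gal assay. Compounds were tested in dose-response at 0.5, 1, 5, 10, 20 and 40 μM, with two replicates per point.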

[4] = system: α7 integrin (LacZ reporter in α7+/LacZ myotubes); assay: Myotube α7 integrin FDG assay (Burkin assay in myotubes, 96-well); conditions: for Burkin Assay in Myotubes, value relative to DMSO: SU9516 analogs, 96-well, N=3-6

CC(=O)C1=C(C)Nc2ncnn2C1c1ccc(C)cc1 (stereo not drawn) [MLS001197779-01]
CMV-LACZ in Myotubes, signal relative to DMSO ([1]; 0.5 uM): 1.1286 | CMV-LACZ in Myotubes, signal relative to DMSO ([1]; 1 uM): 1.1705 | CMV-LACZ in Myotubes, signal relative to DMSO ([1]; 5 uM): 1.0456 | CMV-LACZ in Myotubes, signal relative to DMSO ([1]; 10 uM): 1.0983 | CMV-LACZ in Myotubes, signal relative to DMSO ([1]; 20 uM): 1.0630 | CMV-LACZ in Myotubes, signal relative to DMSO ([1]; 40 uM): 1.0540 | Burkin Assay in Myoblasts, signal relative to DMSO ([2]; 0.5 uM): 0.9161 | Burkin Assay in Myoblasts, signal relative to DMSO ([2]; 1 uM): 1.0032 | Burkin Assay in Myoblasts, signal relative to DMSO ([2]; 5 uM): 1.281 | Burkin Assay in Myoblasts, signal relative to DMSO ([2]; 10 uM): 0.9869 | Burkin Assay in Myoblasts, signal relative to DMSO ([2]; 20 uM): 0.8467 | Burkin Assay in Myoblasts, signal relative to DMSO ([2]; 40 uM): 0.753 | CMV-LACZ in Myoblasts (β-galactosidase activity relative to DMSO) ([3]; 0.5 uM): 0.8987 | CMV-LACZ in Myoblasts (β-galactosidase activity relative to DMSO) ([3]; 1 uM): 1.2563 | CMV-LACZ in Myoblasts (β-galactosidase activity relative to DMSO) ([3]; 5 uM): 0.7604 | CMV-LACZ in Myoblasts (β-galactosidase activity relative to DMSO) ([3]; 10 uM): 0.6490 | CMV-LACZ in Myoblasts (β-galactosidase activity relative to DMSO) ([3]; 20 uM): 0.9846 | CMV-LACZ in Myoblasts (β-galactosidase activity relative to DMSO) ([3]; 40 uM): 1.1267 | Burkin Assay in Myotubes, α7 integrin LacZ reporter signal relative to DMSO ([4]; 0.5 uM): 1.038 | Burkin Assay in Myotubes, α7 integrin LacZ reporter signal relative to DMSO ([4]; 1 uM): 0.961 | Burkin Assay in Myotubes, α7 integrin LacZ reporter signal relative to DMSO ([4]; 5 uM): 1.102 | Burkin Assay in Myotubes, α7 integrin LacZ reporter signal relative to DMSO ([4]; 10 uM): 0.9249 | Burkin Assay in Myotubes, α7 integrin LacZ reporter signal relative to DMSO ([4]; 20 uM): 0.8237 | Burkin Assay in Myotubes, α7 integrin LacZ reporter signal relative to DMSO ([4]; 40 uM): 0.913

Cc1ccccc1/C=C1\C(=O)Nc2ccc(F)cc21 [MLS001197838-01]
CMV-LACZ in Myotubes, value relative to DMSO ([1]; 0.5 uM): 1.0305 | CMV-LACZ in Myotubes, value relative to DMSO ([1]; 1 uM): 1.0038 | CMV-LACZ in Myotubes, value relative to DMSO ([1]; 5 uM): 0.9701 | CMV-LACZ in Myotubes, value relative to DMSO ([1]; 10 uM): 1.1637 | CMV-LACZ in Myotubes, value relative to DMSO ([1]; 20 uM): 0.8547 | CMV-LACZ in Myotubes, value relative to DMSO ([1]; 40 uM): 1.0063 | Burkin Assay in Myoblasts, value relative to DMSO ([2]; 0.5 uM): 1.256 | Burkin Assay in Myoblasts, value relative to DMSO ([2]; 1 uM): 1.198 | Burkin Assay in Myoblasts, value relative to DMSO ([2]; 5 uM): 1.053 | Burkin Assay in Myoblasts, value relative to DMSO ([2]; 10 uM): 1.048 | Burkin Assay in Myoblasts, value relative to DMSO ([2]; 20 uM): 0.8911 | Burkin Assay in Myoblasts, value relative to DMSO ([2]; 40 uM): 0.8648 | CMV-LACZ in Myoblasts, value relative to DMSO ([3]; 0.5 uM): 0.7904 | CMV-LACZ in Myoblasts, value relative to DMSO ([3]; 1 uM): 0.9954 | CMV-LACZ in Myoblasts, value relative to DMSO ([3]; 5 uM): 1.0010 | CMV-LACZ in Myoblasts, value relative to DMSO ([3]; 10 uM): 1.1118 | CMV-LACZ in Myoblasts, value relative to DMSO ([3]; 20 uM): 1.1615 | CMV-LACZ in Myoblasts, value relative to DMSO ([3]; 40 uM): 0.9437 | Burkin Assay in Myotubes, value relative to DMSO ([4]; 0.5 uM): 1.009 | Burkin Assay in Myotubes, value relative to DMSO ([4]; 1 uM): 0.981 | Burkin Assay in Myotubes, value relative to DMSO ([4]; 5 uM): 1.004 | Burkin Assay in Myotubes, value relative to DMSO ([4]; 10 uM): 1.091 | Burkin Assay in Myotubes, value relative to DMSO ([4]; 20 uM): 0.8699 | Burkin Assay in Myotubes, value relative to DMSO ([4]; 40 uM): 0.9981
